Conditions: Liquid, Hot wire method

COCCOC [1,2-dimethoxyethane]
Conditions | thermal conductivity [W/m/K]
245.46 K, 104.6 kPa | 0.1648
245.69 K, 30045 kPa | 0.1742
245.95 K, 9806.6 kPa | 0.1669
245.96 K, 30103 kPa | 0.1746
246.06 K, 5008.2 kPa | 0.1665
246.06 K, 20070 kPa | 0.1711
246.24 K, 20007 kPa | 0.1706
246.49 K, 105.9 kPa | 0.165
246.52 K, 5028.5 kPa | 0.1666
246.69 K, 10018 kPa | 0.1683
246.75 K, 10005 kPa | 0.1682
246.79 K, 5010 kPa | 0.1662
247.52 K, 103.3 kPa | 0.1647
255.91 K, 20016 kPa | 0.1675
256.02 K, 102.5 kPa | 0.1606
256.02 K, 30007 kPa | 0.1706
256.1 K, 10040 kPa | 0.1643
256.21 K, 5070.2 kPa | 0.1623
256.75 K, 30014 kPa | 0.1707
256.81 K, 20002 kPa | 0.1679
256.83 K, 10040 kPa | 0.1642
256.9 K, 5065.5 kPa | 0.1625
256.95 K, 102.5 kPa | 0.161
257.48 K, 5064.5 kPa | 0.1625
257.56 K, 20022 kPa | 0.1674
257.58 K, 102.3 kPa | 0.1607
257.62 K, 10048 kPa | 0.1643
257.66 K, 30002 kPa | 0.1708
266.15 K, 10003 kPa | 0.1617
266.18 K, 5017.9 kPa | 0.1601
266.19 K, 30009 kPa | 0.1688
266.26 K, 101.3 kPa | 0.158
266.26 K, 20003 kPa | 0.1654
266.32 K, 10011 kPa | 0.1618
266.41 K, 100.9 kPa | 0.158
266.58 K, 5037.6 kPa | 0.1598
266.87 K, 20013 kPa | 0.165
266.95 K, 30000 kPa | 0.1684
267.11 K, 30013 kPa | 0.1683
267.35 K, 20003 kPa | 0.1653
267.37 K, 10021 kPa | 0.1617
267.5 K, 101.1 kPa | 0.1578
267.84 K, 5027 kPa | 0.1598
275.68 K, 10024 kPa | 0.1585
275.72 K, 5003.3 kPa | 0.1567
276.21 K, 20024 kPa | 0.1624
276.34 K, 101.8 kPa | 0.1547
276.45 K, 30012 kPa | 0.1657
276.49 K, 100.9 kPa | 0.1543
276.52 K, 20015 kPa | 0.1623
276.94 K, 5006 kPa | 0.1567
277.11 K, 30008 kPa | 0.1654
277.29 K, 10005 kPa | 0.1584
277.31 K, 30012 kPa | 0.1653
277.53 K, 20015 kPa | 0.1623
277.55 K, 5005.5 kPa | 0.1565
277.95 K, 10000 kPa | 0.1585
278.62 K, 101.1 kPa | 0.1539
285.8 K, 10010 kPa | 0.1551
286.18 K, 5012.4 kPa | 0.1531
286.23 K, 101.5 kPa | 0.1512
286.4 K, 30001 kPa | 0.1626
286.51 K, 20013 kPa | 0.159
286.67 K, 30009 kPa | 0.1625
286.8 K, 20011 kPa | 0.159
287.06 K, 101.3 kPa | 0.1509
287.07 K, 30006 kPa | 0.1621
287.28 K, 10001 kPa | 0.1549
287.46 K, 5010.5 kPa | 0.153
287.68 K, 20035 kPa | 0.1586
288.14 K, 10002 kPa | 0.1545
288.62 K, 100.9 kPa | 0.1504
288.65 K, 5009.1 kPa | 0.1525
294.52 K, 10026 kPa | 0.1516
294.53 K, 20008 kPa | 0.1566
294.55 K, 30012 kPa | 0.1589
294.64 K, 10027 kPa | 0.1527
294.68 K, 106.8 kPa | 0.1466
294.68 K, 20036 kPa | 0.1566
294.75 K, 104.2 kPa | 0.1463
294.83 K, 5021.1 kPa | 0.15
294.85 K, 10037 kPa | 0.1514
294.89 K, 30004 kPa | 0.1609
294.98 K, 5020.1 kPa | 0.1495
295 K, 30018 kPa | 0.1595
295.07 K, 5014 kPa | 0.149
295.11 K, 20026 kPa | 0.1557
295.24 K, 20010 kPa | 0.1569
295.28 K, 30016 kPa | 0.1598
295.32 K, 30006 kPa | 0.16
295.36 K, 101.9 kPa | 0.1467
295.36 K, 20006 kPa | 0.1558
295.37 K, 10024 kPa | 0.1515
295.38 K, 104.3 kPa | 0.1474
295.83 K, 10044 kPa | 0.1522
296 K, 5027.1 kPa | 0.1498
314.6 K, 104.5 kPa | 0.1394
314.65 K, 105.6 kPa | 0.1386
314.79 K, 30008 kPa | 0.1522
314.83 K, 20003 kPa | 0.1491
314.84 K, 5010.3 kPa | 0.1415
314.87 K, 10003 kPa | 0.1443
314.9 K, 107.1 kPa | 0.1402
314.95 K, 20016 kPa | 0.1476
315.06 K, 10017 kPa | 0.144
315.14 K, 30010 kPa | 0.1529
315.17 K, 10013 kPa | 0.1447
315.23 K, 5018.6 kPa | 0.1424
315.26 K, 30008 kPa | 0.1519
315.27 K, 105.4 kPa | 0.1395
315.3 K, 20008 kPa | 0.1484
315.31 K, 20001 kPa | 0.1483
315.42 K, 10012 kPa | 0.1445
315.46 K, 5010.3 kPa | 0.1419
315.51 K, 100.6 kPa | 0.1391
334.53 K, 10006 kPa | 0.1361
334.58 K, 102.1 kPa | 0.132
334.58 K, 5005.9 kPa | 0.1342
334.65 K, 5011.8 kPa | 0.1347
334.69 K, 90 kPa | 0.132
334.76 K, 10004 kPa | 0.1366
334.94 K, 10015 kPa | 0.1373
334.98 K, 5008.9 kPa | 0.1344
335.06 K, 101.6 kPa | 0.1322
335.31 K, 10008 kPa | 0.1374
335.39 K, 5011.5 kPa | 0.1347
335.53 K, 105.6 kPa | 0.1314
335.59 K, 10015 kPa | 0.1366
335.96 K, 5018 kPa | 0.1343
336.14 K, 105.6 kPa | 0.1319

Source: the NIST ThermoML archive (doi:10.1007/s10765-008-0549-z)
